Read-outs that look alike come from different tables or passages of the source.
Legend:
[1] = system: MCF-10A cells; experiment: Single concentration primary screen of ADC library, ATP content, MCF-10A cells 2D and 3D; type: cell-based, human; settings: MCF-10A normal cells, 5 µM, 48 h
Method: For single concentration point primary screens, the BT-474 cells were seeded at 3000 cells/well (in RPMI+10% FBS+PSG medium) and the MCF-10A cells at 1000 cells per well (in 50/50 DMEM/F12, 5% FHS, 0.5 µg/mL hydrocortisone, 5 µg/mL insulin, 5 ng/mL rhEGF, PSG) in 96-well Corning #3595 (for 2D) or Corning #7007 (for 3D) plates. Dilution plates were made by diluting the compounds 1∶1 with 50% medium/50% DMSO to yield a final concentration of 5 µM per well.

[2] = system: HF cells cultured as 3D spheroids; experiment: Cell viability assay of HF spheroids (Figure S1A)
Method: All spheroids were cultured and treated as in Figure 3A–B. Figure represents 2 experiments performed in duplicate and table utilizes EC50 values from Figure 3 as a direct comparison. B, immunofluorescent and brightfield overlay images of BT-474 cells (3 k cells, brightfield), HEs (1 k cells, green) and HFs (1 k cells, red) cultured as spheroids for 48 h before addition of vehicle (0.1% DMSO, left panel) or 10 µM Lapatinib for 48 h (right panel).

[3] = system: BT-474+HF+HE co-cultures; experiment: Concentration-response cell viability assay (CellTiterGLO) in BT-474+HF+HE co-cultures; type: cell-based, human; settings: for EC50: Homo sapiens, 48 h, 15-point concentration response
Method: (§1) For co-cultures in 3D, trypsinized cells were counted and mixed together to be seeded into 96-well round-bottom ultralow attachment plates (Corning #7007). As indicated in the legends, either the total cell number was held at 3000 cells per well, or 3000 BT-474 cells were seeded together with 1500 HFs and/or HUVECs. As we observed with the monotypic spheroids, the co-cultures also spontaneously formed one spheroid per well during the 48-hour incubation period. By analysis of ATP levels, the co-culture spheroids were viable for 5 days without a medium change or addition of supplements. All the co-cultures were maintained in a 1∶1∶1 mixture of RPMI:DMEM:EGM-2 complete media. The 2D co-cultures were plated at the same ratio of cells in the same mixed medium, but in flat bottom 96-well tissue culture plates (Corning #3595). Forty-eight hours after plating, the 2D or 3D cells were used for cytotoxicity assays, screening, or immunostaining as described in subsequent Methods sections.
(§2) To quantitate cellular ATP as a measure of viability, 50 µL of CellTiter GLO reagent (Promega) was added to each well. […] In addition, spheroids were triturated six times to promote complete lysis.
(§3) For the co-culture screens, serial dilution primary screening was used. The cells were seeded in 96-well plates at 1500 HF+1500 HUVEC cells per well for the human fibroblast and human endothelial cell (HF+HE) co-cultures (in EGM-2 complete medium), or 750 HF+750 HUVEC+1500 BT-474 for the BT-474+HF+HE co-cultures (in 1∶1 RPMI+10% FBS+PSG: EGM-2 complete medium). Cells seeded in Corning #7007 round bottom, ultra-low attachment plates formed a single 3D spheroid per well while cells seeded in Corning #3595 flat bottom, tissue culture-treated plates attached as a 2D monolayer. […] Spheroid lysis was further aided by mixing 100 µl of volume using the STAR liquid handler, and then 75 µl was transferred to a Greiner Lumitrac 96-well plate for luminescence reading on a PE Envision plate reader. For the monolayer plates, 75 µl was transferred to the Greiner Lumitrac plates per well, and also read on the PE Envision.

[4] = system: HF+HE co-cultures; experiment: Concentration-response cell viability assay (CellTiterGLO) in HF+HE co-cultures; type: cell-based, human; settings: for EC50: Homo sapiens, 48 h, 15-point concentration response
Method: as §1, §2, §3

[5] = system: BT-474 cells; experiment: Cytotoxicity concentration-response assay (CellTiter GLO, cellular ATP) in BT-474 cells cultured in 2D or 3D
[6] = system: BT-474 cells; experiment: Single concentration primary screen of ADC library, ATP content, BT-474 cells 2D and 3D; settings: 5 µM; for hit in primary screen (decreasing ATP content by 50% or more compared to vehicle treated cells): BT-474 tumor cells, 48 h, 2D and 3D; for selectivity for BT-474 cells over MCF-10A cells in primary screen: 3D culture conditions
[7] = system: MCF-10A cells; experiment: Cytotoxicity concentration-response assay (CellTiter GLO, cellular ATP) in MCF-10A cells cultured in 2D or 3D; type: cell-based, human; settings: MCF-10A 3D spheroid, 48 h treatment, read-out: EC50 (concentration at which the compound reduces cell viability by 50%)
Method: To generate 3D miniature cultures for HTS, cells were seeded at a cell number observed to consistently form a single, uniformly round spheroid.
as §2

[8] = system: wild type K-Ras colon cancer cells; set-up: method as in PMID 23555746; settings: 3D spheroids in laminin-rich extracellular matrix, concomitant reduction in EGFR levels; cited from earlier work
[9] = Homo sapiens, BT-474, 48 h, read-out: EC50 (concentration at which the compound reduces cell viability by 50%), BT-474 3D spheroid, 48 h treatment

Structure (SMILES)	hit in primary screen (decreasing ATP content by 50% or more compared to vehicle treated cells) [1]	hit in primary screen (decreasing ATP content by 50% or more compared to vehicle treated cells) [6]	EC50 ([7]; Homo sapiens, MCF-10A, 48 h)	EC50 [5, 9]	selectivity for BT-474 cells over MCF-10A cells in primary screen [6]	further results
CS(=O)(=O)CCNCc1ccc(-c2ccc3ncnc(Nc4ccc(OCc5cccc(F)c5)c(Cl)c4)c3c2)o1 [lapatinib]	only under 2D culture conditions	hits under both 2D and 3D culture conditions	> 5 µM	–	–	fold less sensitive than BT-474 cancer cell spheroids [2]: 10 fold; difference in sensitivity between 3D BT-474+HF+HE and 3D HF+HE co-cultures ([3]; 3D, ratio of EC50 values): about 30 fold; EC50 ([3]; BT-474+HF+HE 2D co-culture): 3.5 µM; EC50 ([3]; BT-474+HF+HE 3D co-culture): 0.9 µM; fold less sensitive than BT-474 cancer cell spheroids ([4]; HF+HE spheroids, 3D, Figure S1A): 100 fold; EC50 ([4]; HF+HE 2D co-culture): 2.7 µM; EC50 ([4]; HF+HE 3D co-culture): 30 µM; sensitivity of BT-474 spheroids compared to BT-474+HF+HE co-cultures ([5]; 3D spheroids): more sensitive; EC50 [7]: 9.8 µM
COc1cc2ncnc(Nc3cccc(Cl)c3)c2cc1OC [AG-1478, Tyrphostin AG1478]	–	–	–	–	–	sensitivity in 3D spheroids [8]: decreased sensitivity
Cc1nc(Nc2ncc(C(=O)Nc3c(C)cccc3Cl)s2)cc(N2CCN(CCO)CC2)n1 [dasatinib]	only under 2D culture conditions	hits under both 2D and 3D culture conditions	–	< 10 µM	–	EC50 ([5]; Homo sapiens, BT-474, read-out: calculated EC50 values in confirmatory dose response assays, BT-474, culture condition (2D/3D) not given): 6 to 8 µM; EC50 ([5]; read-out: EC50 (concentration at which the compound reduces cell viability by 50%), BT-474 3D spheroid, 48 h treatment): 8.1 µM
CCC1=C[C@@H]2CN(C1)Cc1c([nH]c3ccccc13)[C@@](C(=O)OC)(c1cc3c(cc1OC)N(C)[C@H]1[C@@](O)(C(=O)OC)[C@H](OC(C)=O)[C@]4(CC)C=CCN5CC[C@]31[C@@H]54)C2 [vinorelbine]	we did not identify vinorelbine as a “hit”	–	> 100 µM	5.2 µM	slight selectivity	–
COc1cc2ncnc(Nc3ccc(F)c(Cl)c3)c2cc1OCCCN1CCOCC1 [gefitinib]	only under 2D culture conditions	hits under both 2D and 3D culture conditions	–	–	–	–
CC[C@]1(O)C[C@@H]2CN(CCc3c([nH]c4ccccc34)[C@@](C(=O)OC)(c3cc4c(cc3OC)N(C)[C@H]3[C@@](O)(C(=O)OC)[C@H](OC(C)=O)[C@]5(CC)C=CCN6CC[C@]43[C@@H]65)C2)C1 [vinblastine]	–	–	–	–	slight selectivity	–

Source: publication PMC4172726, “3-Dimensional Culture Systems for Anti-Cancer Compound Profiling and High-Throughput Screening Reveal Increases in EGFR Inhibitor-Mediated Cytotoxicity Compared to Monolayer Culture Systems” (PLoS ONE, 2014)
